According to paper PMC8005474 (Journal of neuro-oncology, 2021):

Target: YAP1 (Yes-associated protein, YAP) (Homo sapiens, UniProt P46937)
Assay: SPR with immobilized full-length YAP
Format: binding

YAP1 (Yes-associated protein, YAP), sequence (P46937 whole entry): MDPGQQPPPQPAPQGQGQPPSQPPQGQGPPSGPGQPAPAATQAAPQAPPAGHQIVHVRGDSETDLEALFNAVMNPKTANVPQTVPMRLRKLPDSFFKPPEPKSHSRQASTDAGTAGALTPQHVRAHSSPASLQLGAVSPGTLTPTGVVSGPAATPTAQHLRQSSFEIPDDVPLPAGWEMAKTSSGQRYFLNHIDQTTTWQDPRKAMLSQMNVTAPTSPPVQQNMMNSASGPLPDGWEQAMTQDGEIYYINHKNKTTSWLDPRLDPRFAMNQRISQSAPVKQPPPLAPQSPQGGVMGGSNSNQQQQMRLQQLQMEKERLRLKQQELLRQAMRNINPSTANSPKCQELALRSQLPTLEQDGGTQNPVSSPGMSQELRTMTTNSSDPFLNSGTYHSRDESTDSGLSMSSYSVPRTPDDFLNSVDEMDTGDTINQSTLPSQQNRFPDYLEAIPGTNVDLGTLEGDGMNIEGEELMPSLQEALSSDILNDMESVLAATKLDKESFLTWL

Kd: 738 nM
SMILES: COc1ccc(-c2cc(-c3ccccc3)nc3c2CC(=O)Nc2ccccc2-3)cc1OC [NSC682769]
